Assay results published in article PMC13330650 (Matrix biology : journal of the International Society for …, 2025).
Numbering of substitutions follows the chain as printed. “Also recorded” adds a separate entry of the source. Where two headings read alike, the source gives them in different places.

Key:
[1] = tested on: UGDH pS316 in LNCaP cells; experiment: western blot of UGDH pS316 (anti-p-Akt substrate) in LNCaP whole cell lysates; type: cell-based, human; settings: for EGF-stimulated p-UGDH band intensity: EGF 20ng/mL, inhibitor 20 μM
Source text: To validate the phosphorylation of UGDH by RSK2, S6K1, and SGK1 in a cellular context, we used a western analysis that capitalized on the general reactivity of an antibody generated against the phosphorylated AGC kinase motif (RxRxxpS/T) for targets of Akt, which is also a member of this kinase family. To validate the assay, we first compared phosphorylation of S316 in the in vitro kinase assay using purified recombinant UGDH. […] We further validated using serum starved LNCaP cells treated with EGF to stimulate activity of RSK2 [26] and S6K1 [27], or DHT to activate SGK1 [28], prior to lysate harvest.
(§1) Cell treatments were conducted as follows, except where described. To stimulate phosphorylation of UGDH at S316 for Western blot analysis, cells were cultured in replete medium until they reached 70 % confluence. Seventy-two hours prior to harvest, medium was replaced with phenol-red-free media containing 5 % CS-FBS to reduce androgen signaling. Twenty-four hours prior to harvest, medium was replaced with phenol-red-free media containing 10 % CS-FBS plus 10 nM DHT or vehicle control. EGF (20ng/mL) or vehicle control were added to cell media twenty minutes prior to harvest. For assessment of UGDH pS316 in these conditions with kinase inhibition, assays were repeated with kinase inhibitors added alongside EGF, DHT, and controls. Kinase inhibitor treatment concentrations were optimized based on published efficacy ranges and the following were used for all assays: BIX02565 (20 μM), PF4708671 (20 μM), GSK650394 (40 μM). Proliferation assays were performed with 10 μM enzalutamide (enz) added as described below, and 3D assays were performed with 1 μM enz added during seeding as described. For click chemistry quantification of glycans in cells treated with 4-MU, 10 μM was added to cell medium during the addition of the click labeling reagents.
Media were aspirated from cells, and a portion kept for analysis of HA content. Cells were washed with 2 mL cold 1x PBS, scraped into 1 mL of cold 1xPBS, pelleted by centrifugation, and lysed with 1x RIPA buffer supplemented with 1x protease inhibitor cocktail. For analysis of phosphoprotein expression, 1x phosphatase inhibitor was added to the lysis buffer. Bradford assay was performed to quantify protein content of cell lysates. Blots were imaged and quantified through fluorescence emission using the Odyssey Infrared Imaging System (LI-COR Biosciences, Lincoln, NE, USA). β-tubulin or GAPDH were used to normalize protein expression. Each analysis was plotted for three technical replicates of a representative experiment that was repeated at least three times. Statistical significance was assessed by one-way ANOVA followed by Tukey’s post hoc test for multiple comparisons.

[2] = tested on: LNCaP cell lines (VC, UGDH WT (OE), UGDH S316D, UGDH S316A); experiment: proliferation assay (resazurin conversion to resorufin); type: cell-based, human; settings: for cell number / proliferation, single kinase inhibitor: all lines, 3-day, inhibitor 20 μM, replete media
Procedure: as §1
For basal growth, 5 × 10^4 cells of each line were cultured in 24-well plates in standard steroid-replete media. Cell proliferation was measured daily for three days in replicate plates incubated for 2 h with media containing 10 % resazurin, after which fluorescence of the reduced product, resorufin, was measured (560Ex/590Em) in a microplate reader. To assess the impacts of kinase inhibition on cell growth, assays were repeated in the presence of inhibitors individually and in combination. For androgen-mediated cell growth with kinase inhibition, cells were cultured in 24-well plates in standard steroid-replete media. After 12 h, media were first removed and replaced with media containing 5 % CS-FBS (androgen-depleted conditions) for 48 h, and then media were removed and replaced with media containing 10 % CS-FBS plus 10 nM DHT and kinase inhibitors for another 48 h. Cell proliferation was measured daily as described above beginning when cells were switched to androgen free conditions. For enz treatments, cells were cultured in 24-well plates in standard steroid-replete media. After 12 h, media were replaced with replete media containing vehicle or 10 μM enz and vehicle or kinase inhibitors. For assays with kinase inhibition, cell proliferation was measured daily as described above beginning when cells were switched to the respective treatment condition. Cell numbers were extrapolated from fluorescence values by comparison to a standard curve for each respective cell line, and cell count at the end of the experiment was normalized to cell count on day zero directly following media replacement. All data were plotted for four technical replicates of experiments that were repeated three times. Statistical significance was assessed by one-way ANOVA followed by Tukey’s post hoc test for multiple comparisons.

[3] = tested on: O-glycans in LNCaP UGDH WT (OE) and S316D cells; experiment: metabolic O-glycan labeling (Ac4GalNaz click chemistry) with 4-MU; type: cell-based, human; settings: 10 μM 4-MU, 72 hours
[4] = tested on: LNCaP cell lines (VC, UGDH WT (OE), UGDH S316D, UGDH S316A); experiment: tumoroid (anchorage independent spheroid) growth assay; type: cell-based, human
[5] = biological target: T1, UGDH S316A (Homo sapiens, UniProt O60701, S316A); experiment: steady state kinetics of purified recombinant UGDH S316A; type: biochemical; settings: cofactor NAD+ varied
T1 construct: six-histidine; made in house; host or cells: E. coli BL21(DE3)
T1 sequence (O60701 1-494 S316A): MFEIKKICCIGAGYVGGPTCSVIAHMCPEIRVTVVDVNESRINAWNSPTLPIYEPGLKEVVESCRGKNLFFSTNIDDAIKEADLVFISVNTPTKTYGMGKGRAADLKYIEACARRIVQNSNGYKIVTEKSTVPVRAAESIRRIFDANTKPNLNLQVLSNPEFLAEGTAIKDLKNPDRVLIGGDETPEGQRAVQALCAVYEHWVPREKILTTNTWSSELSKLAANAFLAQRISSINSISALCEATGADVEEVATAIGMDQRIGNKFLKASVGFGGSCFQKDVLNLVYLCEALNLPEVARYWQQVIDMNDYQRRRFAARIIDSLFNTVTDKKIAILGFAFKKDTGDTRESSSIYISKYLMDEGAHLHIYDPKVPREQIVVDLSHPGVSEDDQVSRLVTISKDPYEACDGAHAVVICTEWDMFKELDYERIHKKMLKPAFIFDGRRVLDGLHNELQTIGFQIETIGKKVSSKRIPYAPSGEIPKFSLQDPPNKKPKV
Procedure: (§2) Purified S316 mutants were compared to the UGDH WT enzyme using the following approaches as previously described. Enzymatic activity was evaluated by steady state kinetics in the presence and absence of the endogenous inhibitor UDP-Xylose to compare Michaelis constants and IC50 values. Intrinsic stability was assessed by thermal denaturation and quaternary structure was determined by size exclusion chromatography. Binding of UDP-Xylose to recombinant UGDH and mutants was measured by isothermal titration calorimetry using the MicroCal PEAQ-ITC (Malvern Panalytical). […] Binding heats were corrected for the heat of dilution and analyzed using the MicroCal PEAQ-ITC Analysis Software, employing a single-site binding model to determine Kd values.

[6] = biological target: T2, UGDH S316D (Homo sapiens, UniProt O60701, S316D); experiment: steady state kinetics of purified recombinant UGDH S316D; type: biochemical; settings: cofactor NAD+ varied
T2 construct: six-histidine; made in house; host or cells: E. coli BL21(DE3)
T2 sequence (O60701 1-494 S316D): T1 sequence (O60701 1-494 S316A) with A316D
Procedure: as §2

[7] = biological target: T3, UGDH WT (Homo sapiens, UniProt O60701); experiment: steady state kinetics of purified recombinant UGDH WT; type: biochemical; settings: cofactor NAD+ varied
T3 construct: six-histidine; made in house; host or cells: E. coli BL21(DE3)
T3 sequence (O60701 1-494): T1 sequence (O60701 1-494 S316A) with A316S
Procedure: as §2

CCc1cncnc1N1CCN(Cc2nc3ccc(C(F)(F)F)cc3[nH]2)CC1 [PF4708671]
EGF-stimulated p-UGDH band intensity ([1]; LNCaP cells): significantly reduced | cell number / proliferation, single kinase inhibitor [2]: reduced proliferation in all lines

O=C(O)c1ccc(-c2c[nH]c3ncc(-c4ccccc4)cc23)cc1C1CCCC1 [GSK650394]
DHT-stimulated p-UGDH band ([1]; LNCaP cells, 10 nM DHT, GSK650394 40 μM): virtually eliminated | cell proliferation after serum and steroid depletion ([2]; GSK650394 40 μM, depleted 48 h, then serum and 10 nM DHT): significant impacts were observed | cell proliferation in replete medium ([2]; GSK650394 40 μM, replete medium, not shown): did not abrogate cell proliferation

C[C@]12CCC(=O)C[C@@H]1CC[C@@H]1[C@@H]2CC[C@]2(C)[C@@H](O)CC[C@@H]12 [DHT, 5α-Androstan-17β-ol-3-one]
stimulation of UGDH phosphorylation in whole cell lysates [1]: Strong stimulation

Cc1cc(=O)oc2cc(O)ccc12 [4-MU, 4-methylumbelliferone]
O-glycan levels with 4-MU ([3]; UGDH S316D cell lines): this reversal was not observed | O-glycan levels with 4-MU ([3]; UGDH WT (OE) cells): significant reductions in O-linked glycans; also recorded: reversed the enhancement of O-glycan levels

C[C@@H]1CCNC(=O)c2cc3ccc(C(=O)Nc4nc5ccccc5n4CCCN(C)C)cc3n21 [BIX02565]
EGF-stimulated p-UGDH band intensity ([1]; LNCaP cells): significantly reduced | cell death ([2]; VC and UGDH S316A cells, BIX02565 20 μM): induced significant cell death | cell number / proliferation, single kinase inhibitor [2]: reduced cell number in all lines | spheroid growth diminished ([4]; UGDH WT (OE) and S316D expressing cells, RSK2 inhibitor BIX02565 20 μM): ≈ 80% | medium and large spheroid growth ([4]; VC and UGDH S316A cell lines, RSK2 inhibitor BIX02565 20 μM): almost completely suppressed

NC(=O)c1ccc[n+]([C@@H]2O[C@H](COP(=O)([O-])OP(=O)(O)OC[C@H]3O[C@@H](n4cnc5c(N)ncnc54)[C@H](O)[C@@H]3O)[C@@H](O)[C@H]2O)c1 [NAD+]
Km [5]: 380 ± 60 µM | NAD+ Vmax [5]: 490±20 nmol/min/mg of protein | NAD+ Vmax ([5]; listed as NAD^+): 490 nmol/min/mg of protein | Km [6]: 330 ± 70 µM | NAD+ Vmax [6]: 230±20 nmol/min/mg of protein | NAD+ Vmax ([6]; listed as NAD^+): 230 nmol/min/mg of protein | Km [7]: 530 ± 90 µM | NAD+ Vmax [7]: 710±40 nmol/min/mg of protein | NAD+ Vmax ([7]; listed as NAD^+): 710 nmol/min/mg of protein

CNC(=O)c1ccc(N2C(=S)N(c3ccc(C#N)c(C(F)(F)F)c3)C(=O)C2(C)C)cc1F [enz, enzalutamide]
growth in the presence of enz and S6K1 inhibitor ([2]; UGDH S316D lines, 10 μM enz + PF4708671 20 μM): < 30 % of initial cell count | proliferation in the presence of enz alone ([2]; UGDH WT and S316D cells, 10 μM enz): minimal detectable effect on proliferation; also recorded: continued to proliferate | growth reduction, combined targeting of RSK2 with enz ([2]; UGDH WT and S316D, 10 μM enz + BIX02565 20 μM): ≈ 20% | growth, combined targeting of RSK2 with enz ([2]; VC and UGDH S316A lines, 10 μM enz + BIX02565 20 μM): eliminated growth | growth suppression by enz alone ([2]; VC and UGDH S316A-expressing cells, 10 μM enz): ≈ 40% | enz suppression of large spheroid growth ([4]; UGDH WT (OE) and S316D expressing cells, 1 μM enz): sensitive

EGF: growth factor used to stimulate activity of RSK2 and S6K1
stimulation of UGDH phosphorylation in whole cell lysates ([1]; serum starved LNCaP cells, EGF 20ng/mL or 10 nM DHT): Strong stimulation
